Test [1] concerns LS411N xenograft tumors. The experiment in a line: in vivo anti-tumor activity on LS411N xenograft tumors (BRAF V600E colorectal model). The arrangement: species or system BALB/c Nude mice. Particulars: monotherapy PO QD, 20 mpk, 50 mpk or 140 mpk; compared with encorafenib 24 mpk; FIG. 2. An excerpt:
(§1) FIG. 1 illustrates a schematic representation of the study design reported in FIG. 2 to and specifies the dosage regime that was used for treating the different cohorts in a colorectal tumour model bearing LS411N xenografts, according to some embodiments. Both models are CRC models and present the BRAF V600E mutation.
FIG. 2 […], or of encorafenib at 24 mpk on LS411N xenograft tumors in BALB/c Nude mice (10 mice/cohort), according to some embodiments. Mice were, for example, treated (QD) until day 43 and the graphs express mean tumour volume [mm3] for the different cohorts.
FIG. 3 reports in vivo anti-tumor activity of a combination of R07276389 at 140 mpk or of encorafenib at 24 mpk, in each instance with 20 mpk of cetuximab on LS411N xenograft tumors in BALB/c Nude mice (10 mice/cohort), according to some embodiments. Monotherapy controls were, for example, also included and the mice were treated (QD) until day 43 and the graph expresses mean tumour volume [mm3] for the different cohorts.
FIG. 4 reports in vivo anti-tumor activity of a combination of R07276389 at 60 mpk or of encorafenib at 24 mpk, in each instance with 20 mpk of cetuximab on LS411N xenograft tumors in BALB/c Nude mice (10 mice/cohort), according to some embodiments. […]

Test [2] concerns HT29 xenograft tumors. The test is described as follows: in vivo anti-tumor activity on HT29 xenograft tumors (BRAF V600E colorectal model). Particulars: monotherapy PO QD, 140 mpk, 60 mpk or 30 mpk; compared with encorafenib 24 mpk; FIG. 6. The arrangement: species or system BALB/c Nude mice.
From the text: as §1
FIG. […] Mice were, for example, treated (QD) until day 43 and the graph expresses mean tumour volume [mm3] for the different cohorts.
FIG. 7 reports in vivo anti-tumor activity of a combination of R07276389 at 140 mpk or of encorafenib at 24 mpk, in each instance with 20 mpk of cetuximab on HT29 xenograft tumors in BALB/c Nude mice (10 mice/cohort), according to some embodiments. Monotherapy controls were, for example, also included and the mice were treated (QD) until day 43 and the graph expresses mean tumour volume [mm3] for the different cohorts.
FIG. 8 reports in vivo anti-tumor activity of a combination of R07276389 at 60 mpk or of encorafenib at 24 mpk, in each instance with 20 mpk of cetuximab on HT29 xenograft tumors in BALB/c Nude mice (10 mice/cohort), according to some embodiments. Monotherapy controls were, for example, also included and the mice were treated (QD) until day 43 and the graph expresses mean tumour volume [mm3] for the different cohorts. […]

With `Cn1cnc2ccc(Oc3c(F)ccc(NS(=O)(=O)N4CC[C@@H](F)C4)c3C#N)cc2c1=O` [Compound R07276389, (3R)-N-[2-cyano-4-fluoro-3-(3-methyl-4-oxo-quinazolin-6-yl)oxy-phenyl]-3-fluoro-pyrrolidine-1-sulfonamide], the tumour growth inhibition entry in test [1] and in test [2] was “dose-dependent tumour growth inhibition that was significantly higher when compared with encorafenib” each time.

The record behind these values is US20260207603A1, “COMBINATION THERAPY FOR CANCER TREATMENT” (Hoffmann-La Roche Inc., priority 2022, published 2026).
